Experimental data published in publication PMC11188489, “Pharmacokinetic assessment of tacrolimus in combination with deoxyschizandrin in rats” (Frontiers in Pharmacology, 2024).
Entries after “also recorded” stand apart in the source; their conditions may differ.

Key:
[1] = Pharmacokinetics of deoxyschizandrin in rats after single and multiple administrations (UHPLC-MS/MS of plasma); type: in vivo, SD rats; conditions: for AUMC0→t / AUC(0-t) / AUC(0-inf) / Cmax / MRT / Tmax / half-life: rat plasma; for AUC(0-t) / AUC(0-inf) / Cmax / MRT / Tmax / half-life: male, SD, rat, plasma
Description: The mobile phase A was acetonitrile, and mobile phase B was 0.1% formic acid in water, and the initial mobile phase of gradient elution program was consisted of 60% phase A and 40% phase B. The sample injection volume was set at 10 μL. Gradient elution program was supplied in Supplementary Table S1.
The mass spectrometry detection was achieved on an Agilent 6460A mass spectrometer with ESI source. […] The settings of the mass spectrometer source were as follows: capillary voltage 4,000 V, sheath gas flow 12 L/min, temperature 400°C, dry gas (nitrogen) flow 10 L/min and temperature 350°C, nebulizer pressure 45 psi. All analytes were detected in positive ionization mode. Collision gas (high purity liquid nitrogen) was set at 0.25 MPa. The structures of both two analytes and IS are display in Figure 1.
The pretreatment was performed for the plasma sample by one-step protein precipitation, Briefly, 100 μL sample was transferred into a 1.5 mL EP tube prior to adding with 300 μL methanol(containing 200 ng/mL IS). The mixture was vortex-mixed for 30 s before centrifugation at 17,400 g for 10 min at room temperature, and 100 μL of the supernatant was diluted with 100 μL of acetonitrile (v/v, 1:1) Then, a 10 μL aliquoted of diluted solution was injected into the UHPLC-MS/MS system for analysis.
The protocol of the animal study was approved by the Experimental Animal Ethics Committee of the Shanghai University of Traditional Chinese Medicine. Specific Pathogen Free (SPF) grade SD rats, male, 8 weeks old, 200–250 g, were obtained from the animal experiment center of Shanghai University of Traditional Chinese Medicine. After passing quarantine, the rats were adaptive fed for 2 days. Rats were fasted for 12–14 h, followed by the initiation of pharmacokinetic study of Tac and deoxyschizandrin. This animal study was carried out in accordance with the National Institutes of Health Guide for the Care and Use of Laboratory animals.
(§1) In this study, 42 rats were divided equally into seven groups of six rats each, numbered NG2201-NG2207. Among them, the NG2201 and NG2202 group was dosed with 150 mg/kg deoxyschizandrin alone to study the PK of deoxyschizandrin in rats after single and multiple doses; the NG2203 group was administrate dosed with 1.0 mg/kg of Tac; the NG2204-NG2206 groups were dosed with 75, 150, and 300 mg/kg of deoxyschizandrin plus 1.0 mg/kg Tac, respectively, and the NG2207 group was dosed with the Wuzhi capsule (approximately equal to 150 mg/kg of deoxyschizandrin) plus 1.0 mg/kg of Tac ([Teng et al., 2022]). The detailed dosing regimen is shown in Table 2, and all dose in this experiment were calculated according to clinical dose. Blood samples (approximately 300 μL for each) for PK analysis were collected into lithium–heparin tubes. The plasma sampling schedules are outlined below: Blood samples were drawn pre-dose, at 5, 10, 20 and 30 min, and at 1, 1.5, 2, 4, 8 and 24 h after drug administration. The blood samples were centrifuged at 5,000 g for 15 min at 4°C to collect plasma samples, which were placed −80 refrigerator.
The rat plasma collected from each group was pretreated according to the method in section 2.5, and exposure levels of Tac and deoxyschizandrin were determined using the above established UHPLC-MS/MS method and the PKs were calculated using DAS software using non-compartment model (version 2.0, China Pharmacological Society). The data were presented as mean ± SD.

[2] = Observation of adverse reactions in rats during 12 days of continuous administration; type: in vivo; conditions: 150 mg/kg deoxyschizandrin oral
Description: as §1, with “refrigerator. […]” for “refrigerator.”

[3] = Stability of the two analytes in rat plasma under different storage conditions; type: in vitro ADME; conditions: n=5
Description: To prepare the stock solution, approximately 2.00 mg of Tac, deoxyschizandrin and IS were accurately weighed and dissolved in methanol, respectively. The stock solutions of Tac and deoxyschizandrin with a final concentration of 1.00 mg/mL was obtained, and the IS stock solution was diluted to 100.00 ng/mL using methanol before use. The stock solutions were aliquoted and stored at −80°C. Combined working solutions were prepared by diluting the stock solution using 10% aqueous methanol at the following concentrations: 5.00, 10.00, 20.00, 50.00, 100.00, 200.00, 500.00, 1,000.00, and 2,000.00 ng/mL. Blank rat plasma was used to prepare the calibration standards. Quality-control (QC) samples of two analytes were prepared separately in the same manner at three concentrations, namely, 10 (low concentration), 100 (middle), 1,000 ng/mL (high), and all QC samples were stored at −80°C.
The methodology validation was completed according to FDA guidelines and Chinese Pharmacopoeia (2015 edition), and the linearity, inter- and intra-precision and accuracy, matrix effect and extraction recovery, stability and specificity of this method were validated according to previous study ([Lu et al., 2022]; [Wang et al., 2022]; [Shu et al., 2016]).

[4] = po, 150 mg/kg, NG2201: 150 mg/kg deoxyschizandrin single, D1-D2
[5] = po, 150 mg/kg, NG2202: 150 mg/kg deoxyschizandrin multiple (12 days), D11-D12

For `COc1cc2c(c(OC)c1OC)-c1c(cc(OC)c(OC)c1OC)C[C@H](C)[C@H](C)C2` [deoxyschizandrin], the “increase of C max of deoxyschizandrin after consecutive 12 days of administration” value ([1]; 150 mg/kg, multiple vs single dose, rats) was “about 1.5 fold”, the AUMC0→t ([1]; NG2201: 150 mg/kg deoxyschizandrin single, D1-D2) was 4,088.71 ± 1,056.37 ng. h^2/mL and the AUMC0→t ([1]; NG2202: 150 mg/kg deoxyschizandrin multiple (12 days), D11-D12) was 13,360.23 ± 8,009.79 ng. h^2/mL. It also gave an AUC(0-t) ([1]; oral, 150 mg/kg, NG2201: 150 mg/kg deoxyschizandrin, first day) of 786 ± 174 ng·h/mL, an AUC(0-t) ([1]; oral, 150 mg/kg, NG2202: after 12 days of continuous administration of 150 mg/kg deoxyschizandrin) of 1810 ± 707 ng·h/mL and an AUC(0-inf) [1, 4] of 806 ± 176 ng·h/mL. The AUC(0-t) [1, 4] was 786 ± 174 ng·h/mL, the Cmax [1, 4] was 148 ± 23.2 ng/mL and the MRT [1, 4] was 5.17 ± 0.33 h. It also gave a Tmax [1, 4] of 0.92 ± 0.2 h, a half-life [1, 4] of 4.48 ± 0.53 h and an AUC(0-inf) [1, 5] of 2410 ± 1720 ng·h/mL. It also gave an AUC(0-t) [1, 5] of 1810 ± 707 ng·h/mL, a Cmax [1, 5] of 229 ± 54.8 ng/mL and an MRT [1, 5] of 6.95 ± 1.42 h. The Tmax [1, 5] was 1.5 ± 1.23 h, the half-life [1, 5] was 9.1 ± 7.83 h and the adverse reactions [2] was “No adverse reactions occurred; also recorded: no adverse effects were demonstrated”. The “Auto-sampler stability (24h, 4℃) Mean ± SD” value ([3]; Nominal Conc. 10 ng/mL) was 10.23±0.93, the “Bench-top stability (8h, RT) Mean ± SD” value ([3]; Nominal Conc. 10 ng/mL) was 10.63±0.83 and the “Frozen-thaw stability (3 times) Mean ± SD” value ([3]; Nominal Conc. 10 ng/mL) was 10.45±1.01. For the same compound, the “Long-term stability (1 month, -80℃) Mean ± SD” value ([3]; Nominal Conc. 10 ng/mL) was 10.37±0.25, the “Auto-sampler stability (24h, 4℃) Mean ± SD” value ([3]; Nominal Conc. 100 ng/mL) was 104.49±5.32 and the “Bench-top stability (8h, RT) Mean ± SD” value ([3]; Nominal Conc. 100 ng/mL) was 102.39±2.82. The “Frozen-thaw stability (3 times) Mean ± SD” value ([3]; Nominal Conc. 100 ng/mL) was 111.56±12.48, the “Long-term stability (1 month, -80℃) Mean ± SD” value ([3]; Nominal Conc. 100 ng/mL) was 101.86±11.38 and the “Auto-sampler stability (24h, 4℃) Mean ± SD” value ([3]; Nominal Conc. 1000 ng/mL) was 1024.65±13.44. For the same compound, the “Bench-top stability (8h, RT) Mean ± SD” value ([3]; Nominal Conc. 1000 ng/mL) was 1014.96±11.94, the “Frozen-thaw stability (3 times) Mean ± SD” value ([3]; Nominal Conc. 1000 ng/mL) was 1050.50±50.54 and the “Long-term stability (1 month, -80℃) Mean ± SD” value ([3]; Nominal Conc. 1000 ng/mL) was 1012.51±45.24.
